{
  "source": "patent US20260217743A1",
  "about": "“ETHER OF PHOSPHATIDYLCHOLINE AND PHOSPHATIDYLETHANOLAMINE, THEIR LYSO-FORMS AND MIXTURE THEREOF FOR USE IN THE TREATMENT OF A DISEASE OR DISORDER CAUSED BY A DEFICIENCY IN PLASMALOGENS” (Baker Heart and Diabetes Institute, priority 2023, published 2026)",
  "key": {"[1]": {"test_system": "RAW 264.7 cells", "assay": "LPC(O)/LPE(O) supplementation with different SN1 compositions in RAW 264.7 cells, PE(P) level and composition", "type": "cell-based, mouse", "conditions": "20 μM, 24 hours", "experimental": "A mouse macrophage cell line, RAW 264.7 was used for this study. The cells were cultured at 37° C. with 5% CO2 in Roswell Park Memorial Institute (RPMI) 1640 medium containing L-glutamine with 1% sodium pyruvate (Gibco, USA) and 10% fetal bovine serum (Gibco, USA). The cells were passaged every week and the media replenished every two to three days until passage 30, at which point these cells were discarded. The cells were seeded in a 12-well plate at a concentration of 300,000 cells/ml of media and allowed to grow until they reached 80% confluency.\nTo assess the incorporation of plasmalogen precursors into cellular plasmalogens, cells were supplemented with compounds with different SN1 compositions, i.e., varying proportions of O-16:0, O-18:0, and O-18:1 of LPC(O) or LPE(O) at a concentration of 20 μM (Table 14). The plasmalogen precursors, LPC(O), and LPE(O), were dissolved in chloroform:methanol (2:1), evaporated under a stream of nitrogen gas at 40° C., and then reconstituted in RPMI medium with 2% bovine serum albumin (Sigma-Aldrich, USA). The control treatment for the cells consisted of RPMI with 2% bovine serum albumin. Once prepared, the media containing the precursors were vortexed and sonicated in an ultrasonic water bath (Soniclean, Adelaide, SA, Australia) for 15 minutes.\nLipids were extracted from cells using the butanol-methanol method, following established protocols. […] These vials were then frozen at −80° C. until they were ready for mass spectrometry analysis.\nA targeted lipidomic approach using LC-MS/MS, following a previously published protocol (Huynh, et al., “High-Throughput Plasma Lipidomics: Detailed Mapping of the Associations with Cardiometabolic Risk Factors,” Cell Chem. Biol., 2019 Jan. 17; 26(1):71-84.e4, doi: 10.1016/j.chembiol.2018.10.008), was utilised for the samples from this study. […] Multiple lipid species belonging to different lipid classes including phosphatidylcholine (PC), alkylphosphatidylcholine [PC(O)], alkenylphosphatidylcholine [PC(P)], phosphatidylethanolamine (PE), alkylphosphatidylethanolamine [PE(O)], alkenylphosphatidylethanolamine [PE(P)] or PE plasmalogen, lysophosphatidylcholine (LPC), lysoalkylphosphatidylcholine [LPC(O)], lysoalkenylphosphatidylcholine [LPC(P)], lysophosphatidylethanolamine (LPE), lysoalkylphosphatidylethanolamine [LPE(O)], lysoalkenylphosphatidylethanolamine [LPE(P)], triacylglycerol (TG) and alkyldiacylglycerol [TG(O)] were measured. The lipid species measured in this study are listed in Supplementary Table 1, which is included at the end of this Example. […]\nFor data processing, vendor software Qualitative Analysis B.07.00 and QQQ Quantitative Analysis B.10.0.0 were utilized. Relative quantification of lipid species was determined by comparing them to the corresponding internal standards. […]"}, "[2]": {"test_system": "3T3-L1 cells", "assay": "LPC(O)/LPE(O) supplementation with different SN1 compositions in 3T3-L1 cells, PE(P) level and composition", "type": "cell-based, mouse", "conditions": "20 μM, 24 hours", "description": "The method employed in this study was the same as described in example 5, with the exception of the cell line and culture medium used. For this study, a mouse fibroblast/pre-adipocyte cell line, 3T3-L1, was utilised and cultured in Dulbecco's Modified Eagle Medium (DMEM) (Gibco, USA), supplemented with 1% sodium pyruvate (Gibco, USA) and 10% newborn calf serum (Gibco, New Zealand)."}},
  "data": [
    {"compound": "CCCCCCCCCCCCCCCCCCOC[C@@H](O)COP(=O)(O)OCCN", "note": "[LPE(O-18:0) 100%]", "values": [
      {"measurement": "efficacy in elevating the endogenous PE(P) level", "setting": "[1]", "result": "equal effectiveness"}
    ]},
    {"compound": "CCCCCCCCCCCCCCCCOC[C@@H](O)COP(=O)([O-])OCC[N+](C)(C)C", "note": "[LPC(O-16:0) 100%]", "values": [
      {"measurement": "efficacy in elevating the endogenous PE(P) level", "setting": "[1]", "result": "greater efficacy"}
    ]},
    {"compound": "CCCCCCCCCCCCCCCCOC[C@@H](O)COP(=O)(O)OCCN", "note": "[LPE(O-16:0) 100%]", "values": [
      {"measurement": "efficacy in elevating the endogenous PE(P) level", "setting": "[1]", "result": "equal effectiveness"}
    ]},
    {"compound": "CCCCCCCC/C=C\\CCCCCCCCOC[C@@H](O)COP(=O)(O)OCCN", "note": "[LPE(O-18:1) 100%]", "values": [
      {"measurement": "efficacy in elevating the endogenous PE(P) level", "setting": "[1]", "result": "comparatively less effective"},
      {"measurement": "cellular PE(P) levels", "setting": "[2]", "result": "appeared to reduce these levels"}
    ]}
  ]
}
